Source: patent US6914045B2, “Glycopeptide antibiotics” (Wyeth Holdings Corporation, priority 2001, dated 2005)
≈ marks a conversion by molar mass, not a printed value.

Assays:
Streptococcus sp. = assay: in vitro antibacterial evaluation, MIC by broth dilution; assay type: cell-based; conditions: broth dilution, 18 hours at 35° C.
How it was run: (§1)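 Broth dilution per NCCLS M7-A2 in Mueller-Hinton II medium, inoculum 5×10^5 CFU/mL, antibiotic range 64-0.06 μg/mL. MIC taken as lowest concentration inhibiting growth; Gram-positive panel includes recent clinical isolates resistant to methicillin, penicillin and/or vancomycin.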

Escherichia coli = assay: as above; assay type: cell-based
How it was run: as §1

Enterococcus sp. = assay: as above; assay type: cell-based; conditions: broth dilution, 18 hours at 35° C.
How it was run: as §1

Staphylococcus sp. = assay: as above; assay type: cell-based; conditions: broth dilution, 18 hours at 35° C.; for MIC Staphylococcus aureus (GC 1131): strain GC 1131
How it was run: as §1

[1] = test system: Staphylococcus aureus-SMITH (GC 4543); assay: acute lethal infection in mice; assay type: in vivo; conditions: acute lethal infection, female CD-1 mice, intraperitoneal challenge, intravenous 30 min. after infection, 7 day survival
How it was run: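 Protocol: bacteria suspended in trypticase soy broth or hog gastric mucin injected ip into female CD-1 mice at a level killing untreated controls in 24-48 hr; compound given iv in saline or 5% dextrose 30 min post-challenge; five mice per dose; ED50 derived from pooled 7 day survival of three runs.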

## CC(c1ccccc1)C1NC(=O)CNC(=O)C(CO)NC(=O)C(C(O)C2CNC(=N)N2C2OC(CO)C(O)C(O)C2O)NC(=O)C(C(O)C2CNC(=N)N2)NC(=O)C(Cc2ccc(OC3OC(CO)C(OC4OC5COC(c6ccc7c(c6)OCO7)OC5C(O)C4O)C(O)C3O)cc2)NC1=O (stereo not drawn) [Example 143, Cyclo[glycyl-β-methylphenylalanyl-O-[4-O-[4,6-O-(1,3-benzodioxol-5-ylmethylene)hexopyranosyl]hexopyranosyl]tyrosyl-3-(2-iminoimidazolidin-4-yl)seryl-3-(3-hexopyranosyl-2-iminoimidazolidin-4-yl)serylseryl]]
Streptococcus sp.; Streptococcus agalactiae (GC 4564)
  MIC Streptococcus agalactiae (GC 4564): 0.5 to 1 µg/mL
Streptococcus sp.; Streptococcus pneumoniae (ATCC 6301)
  MIC Streptococcus pneumoniae (ATCC 6301): 0.12 to 0.5 µg/mL
Streptococcus sp.; Streptococcus pneumoniae (GC 1894)
  MIC Streptococcus pneumoniae (GC 1894): <0.06 to 0.12 µg/mL
Streptococcus sp.; Streptococcus pneumoniae (GC 4565)
  MIC Streptococcus pneumoniae (GC 4565): 0.25 to 0.5 µg/mL
Streptococcus sp.; Streptococcus pyogenes (GC 4563)
  MIC Streptococcus pyogenes (GC 4563): 0.25 to 1 µg/mL
Streptococcus sp.; strain ATCC 6301
  MIC Streptococcus pneumoniae (ATCC 6301): 0.12 to 0.5 µg/mL
Streptococcus sp.; strain GC 1894
  MIC Streptococcus pneumoniae (GC 1894): <0.06 to 0.12 µg/mL
Streptococcus sp.; strain GC 4563
  MIC Streptococcus pyogenes (GC 4563): 0.25 to 1 µg/mL
Streptococcus sp.; strain GC 4564
  MIC Streptococcus agalactiae (GC 4564): 0.5 to 1 µg/mL
Streptococcus sp.; strain GC 4565
  MIC Streptococcus pneumoniae (GC 4565): 0.25 to 0.5 µg/mL
Escherichia coli; strain ATCC 25922, 18 hours at 35° C.
  MIC Escherichia coli (ATCC 25922): >64 µg/mL
Escherichia coli; strain GC 4559, 18 hours at 35° C.
  MIC Escherichia coli (GC 4559): 64 µg/mL (≈ 44.8 µM)
Escherichia coli; strain GC 4560, 18 hours at 35° C.
  MIC Escherichia coli (GC 4560): 1 to 2 µg/mL
Enterococcus sp.; Enterococcus avium (GC 4558)
  MIC Enterococcus avium (GC 4558): 8 to 16 µg/mL
Enterococcus sp.; Enterococcus faecalis (ATCC 29212)
  MIC Enterococcus faecalis (ATCC 29212): 8 to 16 µg/mL
Enterococcus sp.; Enterococcus faecalis (GC 2242)
  MIC Enterococcus faecalis (GC 2242): 4 to 16 µg/mL
Enterococcus sp.; Enterococcus faecalis (GC 2691)
  MIC Enterococcus faecalis (GC 2691): 8 µg/mL (≈ 5.6 µM)
Enterococcus sp.; Enterococcus faecalis (GC 3059)
  MIC Enterococcus faecalis (GC 3059): 8 to 16 µg/mL
Enterococcus sp.; Enterococcus faecalis (GC 4552)
  MIC Enterococcus faecalis (GC 4552): 8 to 16 µg/mL
Enterococcus sp.; Enterococcus faecalis (GC 4553)
  MIC Enterococcus faecalis (GC 4553): 8 to 16 µg/mL
Enterococcus sp.; Enterococcus faecalis (GC 4554)
  MIC Enterococcus faecalis (GC 4554): 8 to 16 µg/mL
Enterococcus sp.; Enterococcus faecalis (GC 6189)
  MIC Enterococcus faecalis (GC 6189): 4 to 16 µg/mL
Enterococcus sp.; Enterococcus faecium (GC 2243)
  MIC Enterococcus faecium (GC 2243): 8 to 16 µg/mL
Enterococcus sp.; Enterococcus faecium (GC 4556)
  MIC Enterococcus faecium (GC 4556): 8 to 16 µg/mL
Enterococcus sp.; Enterococcus faecium (GC 4557)
  MIC Enterococcus faecium (GC 4557): 2 to 8 µg/mL
Enterococcus sp.; strain ATCC 29212
  MIC Enterococcus faecalis (ATCC 29212): 8 to 16 µg/mL
Enterococcus sp.; strain GC 2242
  MIC Enterococcus faecalis (GC 2242): 4 to 16 µg/mL
Enterococcus sp.; strain GC 2243
  MIC Enterococcus faecium (GC 2243): 8 to 16 µg/mL
Enterococcus sp.; strain GC 2691
  MIC Enterococcus faecalis (GC 2691): 8 µg/mL (≈ 5.6 µM)
Enterococcus sp.; strain GC 3059
  MIC Enterococcus faecalis (GC 3059): 8 to 16 µg/mL
Enterococcus sp.; strain GC 4552
  MIC Enterococcus faecalis (GC 4552): 8 to 16 µg/mL
Enterococcus sp.; strain GC 4553
  MIC Enterococcus faecalis (GC 4553): 8 to 16 µg/mL
Enterococcus sp.; strain GC 4554
  MIC Enterococcus faecalis (GC 4554): 8 to 16 µg/mL
Enterococcus sp.; strain GC 4556
  MIC Enterococcus faecium (GC 4556): 8 to 16 µg/mL
Enterococcus sp.; strain GC 4557
  MIC Enterococcus faecium (GC 4557): 2 to 8 µg/mL
Enterococcus sp.; strain GC 4558
  MIC Enterococcus avium (GC 4558): 8 to 16 µg/mL
Enterococcus sp.; strain GC 6189
  MIC Enterococcus faecalis (GC 6189): 4 to 16 µg/mL
Staphylococcus sp.; inoculum 5×10^5 CFU/mL
  MIC Staphylococcus aureus (GC 1131): 2 to 4 µg/mL
Staphylococcus sp.; strain ATCC 29213
  MIC Staphylococcus aureus (ATCC 29213): 2 to 4 µg/mL
Staphylococcus sp.
  MIC Staphylococcus aureus (GC 1131): 2 to 4 µg/mL
Staphylococcus sp.; strain GC 3051
  MIC Staphylococcus aureus (GC 3051): 2 to 4 µg/mL
Staphylococcus sp.; strain GC 3053
  MIC Staphylococcus aureus (GC 3053): 4 to 8 µg/mL
Staphylococcus sp.; strain GC 4541
  MIC Staphylococcus aureus (GC 4541): 2 to 4 µg/mL
Staphylococcus sp.; strain GC 4542
  MIC Staphylococcus aureus (GC 4542): 1 to 4 µg/mL
Staphylococcus sp.; strain GC 4543
  MIC Staphylococcus aureus-SMITH (GC 4543): 2 to 4 µg/mL
Staphylococcus sp.; strain GC 4544
  MIC Staphylococcus aureus (GC 4544): 2 to 8 µg/mL
Staphylococcus sp.; strain GC 4545
  MIC Staphylococcus aureus (GC 4545): 2 to 4 µg/mL
Staphylococcus sp.; strain GC 4546
  MIC Staphylococcus haemolyticus (GC 4546): 0.5 to 2 µg/mL
Staphylococcus sp.; strain GC 4547
  MIC Coagulase Negative Staphylococcus (GC 4547): 1 to 2 µg/mL
Staphylococcus sp.; strain GC 4548
  MIC Coagulase Negative Staphylococcus (GC 4548): 1 to 2 µg/mL
Staphylococcus sp.; strain GC 4549
  MIC Coagulase Negative Staphylococcus (GC 4549): 1 µg/mL (≈ 0.701 µM)
Staphylococcus sp.; strain GC 4551
  MIC Coagulase Negative Staphylococcus (GC 4551): 2 to 4 µg/mL
Staphylococcus sp.; strain GC 6257
  MIC Coagulase Negative Staphylococcus (GC 6257): 1 to 2 µg/mL
Staphylococcus sp.; strain SMITH GC 4543
  MIC Staphylococcus aureus-SMITH (GC 4543): 2 to 4 µg/mL
[1]
  median effective dose (ED50), Staphylococcus aureus-SMITH (GC 4543): 0.28 mg/kg
